Patent publication US10239933B2, “Compositions and methods for modulating thrombin generation” (The Children's Hospital of Philadelphia, priority 2011, dated 2019)
“Also recorded” adds a separate entry of the source. Like-named read-outs stand apart in the source and are kept apart here. Blank lines part the entries; values can stand above or below the molecule they belong to. Ends that are not written are not given here. * marks the point of attachment. X2 = CN(c1ccccc1)c1ccc2c(-c3ccccc3S(=O)(=O)N3CCC(C(=O)NCCCCCN4C(=O)CC(*)C4=O)CC3)c3ccc(=[N+](C)c4ccccc4)cc-3oc2c1; X1 = O=C1OC2(c3cc(F)c(O)cc3Oc3cc(O)c(F)cc32)c2ccc(N3C(=O)CC(*)C3=O)cc21

Tests used:
FV-810 [1] = target: T1, FV-810 (Homo sapiens, UniProt P12259, DEL839-1519); experiment: Clotting assay, FV-deficient plasma supplemented with FV-810 (FV-DT); assay type: biochemical; conditions: FV-deficient plasma; FIG. 8A: 0.25 nM FV-810, peptides at 5 μM
T1 construct: amino acids 1-28 are a signal peptide that is cleaved and numbering begins at residue 29; made in house
Protocol: (§1) Residual clotting activity of Factor V variants was determined by prothrombin time-based clotting assays. Factor V variants were incubated with either the FVBR or s46 peptide, after which the mixtures were mixed with Factor V deficient plasma and clotting times were measured. Where indicated, the Factor V variants were activated by pre-incubation with thrombin prior to addition of the peptides.
(§2) FV derivatives (500 nM) were prepared in assay buffer. Where noted, FV derivatives were pretreated with 10 nM thrombin for 15 minutes at 37° C., followed by the addition of 15 nM hirudin. Samples were diluted to 0.25 nM in assay buffer with 0.1% BSA, and the specific clotting activity was measured in FV-deficient plasma (George King Bio-Medical, Overland Park, Kans.) with TriniCLOT PT Excel (Tcoag, Wicklow, Ireland) as described (Camire et al. (1998) Biochemistry 37:11896-11906). The data are presented as the means±S.D.

FV-810 [2] = target: T1, FV-810; experiment: Fluorescence anisotropy, direct binding of OG488-BR to FV-810
rFVa [3] = target: T2, rFVa (Homo sapiens, UniProt P12259); experiment: Fluorescence anisotropy, direct binding of OG488-BR to rFVa; conditions: fluorescently labeled BR peptide, rFVa titrated
T2 construct: thrombin rapidly cleaves Factor V at Arg709 to produce heavy chain (HC); rapidly cleaves at Arg1018 and Arg1545 to produce light chain (LC); made in house
T2 sequence (P12259 29-737 limits assumed): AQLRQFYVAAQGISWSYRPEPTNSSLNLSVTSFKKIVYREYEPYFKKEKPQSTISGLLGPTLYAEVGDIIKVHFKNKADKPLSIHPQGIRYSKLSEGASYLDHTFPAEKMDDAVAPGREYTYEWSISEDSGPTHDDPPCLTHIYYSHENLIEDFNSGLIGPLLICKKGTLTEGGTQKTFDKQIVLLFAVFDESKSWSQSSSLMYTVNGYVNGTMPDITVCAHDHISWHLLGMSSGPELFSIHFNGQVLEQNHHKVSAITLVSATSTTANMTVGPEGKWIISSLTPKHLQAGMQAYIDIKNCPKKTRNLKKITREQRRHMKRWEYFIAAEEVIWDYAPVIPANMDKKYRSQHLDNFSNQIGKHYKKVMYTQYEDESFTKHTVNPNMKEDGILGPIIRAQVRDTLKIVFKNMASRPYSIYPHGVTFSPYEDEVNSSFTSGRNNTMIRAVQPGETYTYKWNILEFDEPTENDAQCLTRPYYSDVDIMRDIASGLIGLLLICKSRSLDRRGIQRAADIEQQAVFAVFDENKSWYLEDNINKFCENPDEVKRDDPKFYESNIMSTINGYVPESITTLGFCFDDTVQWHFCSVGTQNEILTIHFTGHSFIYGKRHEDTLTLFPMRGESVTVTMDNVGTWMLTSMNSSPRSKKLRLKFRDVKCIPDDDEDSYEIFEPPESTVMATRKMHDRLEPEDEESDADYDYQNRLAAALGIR
T2 sequence (P12259 1574-2224 limits assumed): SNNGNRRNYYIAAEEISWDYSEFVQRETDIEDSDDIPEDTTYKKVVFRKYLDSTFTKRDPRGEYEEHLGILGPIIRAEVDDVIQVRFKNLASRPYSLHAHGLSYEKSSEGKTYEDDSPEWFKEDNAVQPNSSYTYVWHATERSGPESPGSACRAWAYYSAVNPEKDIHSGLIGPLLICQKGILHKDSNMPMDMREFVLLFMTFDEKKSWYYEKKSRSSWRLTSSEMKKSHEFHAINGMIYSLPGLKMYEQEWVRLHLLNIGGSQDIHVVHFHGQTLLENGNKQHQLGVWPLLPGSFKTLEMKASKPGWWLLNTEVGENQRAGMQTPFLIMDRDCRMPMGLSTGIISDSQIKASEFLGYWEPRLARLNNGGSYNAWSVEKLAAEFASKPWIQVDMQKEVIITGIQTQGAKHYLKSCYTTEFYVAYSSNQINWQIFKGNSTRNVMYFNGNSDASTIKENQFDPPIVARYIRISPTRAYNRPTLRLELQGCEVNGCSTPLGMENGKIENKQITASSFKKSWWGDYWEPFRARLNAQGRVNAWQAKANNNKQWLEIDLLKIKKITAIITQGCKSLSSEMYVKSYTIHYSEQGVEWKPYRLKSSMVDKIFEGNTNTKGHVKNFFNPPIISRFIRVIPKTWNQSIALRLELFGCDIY

FV-810^R709Q = target: T3, FV-810^R709Q (Homo sapiens, UniProt P12259, DEL839-1519/R737Q); experiment: Fluorescence anisotropy, binding of OG488-BR to FV-810^R709Q; conditions: after incubation with thrombin
T3 construct: amino acids 1-28 are a signal peptide that is cleaved and numbering begins at residue 29; made in house

FV-810^R1545Q = target: T4, FV-810^R1545Q (Homo sapiens, UniProt P12259, DEL839-1519/R1573Q); experiment: Fluorescence anisotropy, binding of OG488-BR to FV-810^R1545Q
T4 construct: amino acids 1-28 are a signal peptide that is cleaved and numbering begins at residue 29; made in house

FV-810^QQ = target: T5, FV-810^QQ (Homo sapiens, UniProt P12259, DEL839-1519/R1573Q/R737Q); experiment: Fluorescence anisotropy, binding of OG488-BR to FV-810^QQ; conditions: after incubation with thrombin
T5 construct: amino acids 1-28 are a signal peptide that is cleaved and numbering begins at residue 29; made in house

FV-810 [4] = target: T1, FV-810; experiment: Displacement of OG488-BR from preformed OG488-BR/FV-810 complex (fluorescence anisotropy); assay type: binding
FXa/FV-DT = target: T6, FXa/FV-DT (Homo sapiens, UniProt P12259, DEL839-1519); experiment: Prothrombin activation assay, prothrombinase containing FV-810 (FV-DT); assay type: biochemical; conditions: peptide titrated; 1.4 μM prothrombin, 50 μM PCPS, 25° C.
T6 construct: amino acids 1-28 are a signal peptide that is cleaved and numbering begins at residue 29; made in house
Protocol: Steady-state initial velocities of prothrombin cleavage were determined discontinuously at 25° C. by measuring the initial rate of thrombin formation. Reaction mixtures contained liposomes (75:25, PC:PS), prothrombin, the indicated Factor V variants, and the Factor V peptides FVBR or s46. The reactions were initiated by adding Factor Xa, and thrombin generation was determined at multiple time points by monitoring the cleavage of the chromogenic thrombin substrate S-2238.
Steady-state initial velocities of prothrombin cleavage were determined discontinuously at 25° C. as described (Camire, R. M. (2002) J. Biol. Chem., 277:37863-37870). Reaction mixtures containing PCPS (50 μM), DAPA (3 μM), prothrombin (1.4 μM), and either rFVa or the indicated FV-810 derivatives were incubated with B-domain peptides (0-10 μM) in assay buffer. […] Prothrombin activation was determined using the chromogenic thrombin substrate 52238 as described (Camire, R. M. (2002) J. Biol. Chem., 277:37863-37870).

FV-810 [5] = target: T1, FV-810; experiment: Analytical ultracentrifugation (sedimentation velocity) of QSY7-BR with FV-810; assay type: binding
Protocol: Analytical ultracentrifugation of QSY7 C5-maleimide-modified BR (QSY7-BR) was performed in a Beckman Optima XL-I analytical ultracentrifuge using absorbance optics. Sedimentation velocity was measured at 25,000 or 45,000 rpm with two-sector cells in an An-60 Ti rotor at 20° C. Sedimentation of QSY7-BR was followed measuring absorbance at 560 nm in cells containing 5 μM QSY7-BR alone or with 7 μM FV-810 or rFVa in 20 mM HEPES, 150 mM NaCl, and 2 mM CaCl2, pH 7.4. Sedimentation coefficients and molecular weights were determined by g(s*) analysis performed using DCDT+ (Philo, J. S. (2000) Anal. Biochem., 279:151-163).

FVDT [6] = target: T7, FVDT (Homo sapiens, UniProt P12259, DEL839-1519); experiment: Inhibition of FVDT by the FVBR or TFPI peptide (FIG. 7B); assay type: biochemical
T7 construct: amino acids 1-28 are a signal peptide that is cleaved and numbering begins at residue 29; made in house

FVDT [7] = target: T7, FVDT; experiment: Direct binding of TFPI to FVDT (FIG. 7C)
rFVa [8] = target: T2, rFVa; experiment: Clotting assay, FV-deficient plasma supplemented with rFVa; assay type: biochemical; conditions: FIG. 8B: 0.25 nM rFVa, peptides at 5 μM
Protocol: as §1, §2

T1 sequence (P12259 with tags, fused parts or gaps DEL839-1519): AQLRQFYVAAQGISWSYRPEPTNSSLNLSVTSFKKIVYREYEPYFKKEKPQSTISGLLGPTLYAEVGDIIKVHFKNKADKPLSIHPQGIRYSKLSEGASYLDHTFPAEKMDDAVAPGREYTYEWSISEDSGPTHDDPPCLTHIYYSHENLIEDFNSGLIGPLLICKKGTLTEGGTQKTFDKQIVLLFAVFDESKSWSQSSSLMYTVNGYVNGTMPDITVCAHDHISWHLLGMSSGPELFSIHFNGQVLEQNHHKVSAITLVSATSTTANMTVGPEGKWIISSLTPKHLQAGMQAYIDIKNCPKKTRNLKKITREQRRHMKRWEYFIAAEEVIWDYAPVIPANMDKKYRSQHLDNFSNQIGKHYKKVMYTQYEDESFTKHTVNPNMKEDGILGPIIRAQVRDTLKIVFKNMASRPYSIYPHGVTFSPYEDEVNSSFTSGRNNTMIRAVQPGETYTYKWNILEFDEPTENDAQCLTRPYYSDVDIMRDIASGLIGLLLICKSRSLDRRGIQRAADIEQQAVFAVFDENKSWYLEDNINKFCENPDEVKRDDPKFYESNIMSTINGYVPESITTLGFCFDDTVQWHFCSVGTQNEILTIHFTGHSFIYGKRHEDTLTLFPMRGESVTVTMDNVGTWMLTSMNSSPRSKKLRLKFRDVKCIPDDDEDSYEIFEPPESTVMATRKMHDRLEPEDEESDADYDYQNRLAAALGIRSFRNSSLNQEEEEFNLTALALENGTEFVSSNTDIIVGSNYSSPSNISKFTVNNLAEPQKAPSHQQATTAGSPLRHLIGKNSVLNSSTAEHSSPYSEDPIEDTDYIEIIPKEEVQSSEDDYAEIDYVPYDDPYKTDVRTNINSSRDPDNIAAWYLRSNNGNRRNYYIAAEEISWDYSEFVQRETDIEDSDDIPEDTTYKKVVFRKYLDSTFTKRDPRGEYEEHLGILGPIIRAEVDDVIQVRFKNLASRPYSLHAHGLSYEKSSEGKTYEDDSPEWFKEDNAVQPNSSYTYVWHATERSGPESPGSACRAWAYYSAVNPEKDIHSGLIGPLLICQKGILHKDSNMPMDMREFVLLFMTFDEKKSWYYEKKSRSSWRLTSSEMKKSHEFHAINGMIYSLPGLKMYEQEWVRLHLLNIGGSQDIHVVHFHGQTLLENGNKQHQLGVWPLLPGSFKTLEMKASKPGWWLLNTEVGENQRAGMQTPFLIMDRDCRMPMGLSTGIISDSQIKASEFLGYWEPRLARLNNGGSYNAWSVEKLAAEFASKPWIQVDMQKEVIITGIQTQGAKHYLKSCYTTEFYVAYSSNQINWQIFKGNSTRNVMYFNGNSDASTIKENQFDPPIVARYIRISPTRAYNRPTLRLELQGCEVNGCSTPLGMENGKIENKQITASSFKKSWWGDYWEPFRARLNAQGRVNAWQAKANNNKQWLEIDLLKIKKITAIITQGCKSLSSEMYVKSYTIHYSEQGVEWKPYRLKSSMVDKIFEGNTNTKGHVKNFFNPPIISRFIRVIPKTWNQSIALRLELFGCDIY
T7 sequence (P12259 with tags, fused parts or gaps DEL839-1519): as above
T4 sequence (P12259 with tags, fused parts or gaps DEL839-1519/R1573Q): as the sequence (P12259 with tags, fused parts or gaps DEL839-1519) above, with R864Q counted along it
T3 sequence (P12259 with tags, fused parts or gaps R737Q/DEL839-1519): as the sequence (P12259 with tags, fused parts or gaps DEL839-1519) above, with R709Q counted along it
T6 sequence (P12259 with tags, fused parts or gaps DEL839-1519): as the sequence (P12259 with tags, fused parts or gaps DEL839-1519) above
T5 sequence (P12259 with tags, fused parts or gaps R737Q/DEL839-1519/R1573Q): as the sequence (P12259 with tags, fused parts or gaps DEL839-1519) above, with R709Q, R864Q counted along it

Molecule: H-C(X1)SRAWGESTPLANKPGKQSGHPKFPRVRHKSLQVRQDGGKSRLKKSQFLIKTRKKKKEK-OH [OG488-BR]
binding of OG488-BR to FV-810 with EDTA (FV-810 [2]; 10 mM EDTA added to the buffer): no binding was observed | stoichiometry n at saturation (FV-810 [2]; 20 or 40 nM OG488-BR, 50 μM PCPS, 25° C.): 1.27±0.02 mol of FV-810/mol of OG488-BR | Kd (FV-810 [2]; FV-810 pretreated with buffer, 30 nM OG488-BR, 50 μM PCPS, assuming n=1): 2.1 ± 0.3 nM | Kd (FV-810 [2]; FV-810 titrated into 20 or 40 nM OG488-BR, 50 μM PCPS, 25° C.): 2.07 ± 0.2 nM | binding of OG488-BR to thrombin-cleaved FV-810 (FV-810 [2]; after incubation with thrombin): did not; also recorded: neither FV-810 nor FV-810^R709Q had detectable binding | binding to rFVa/FVa (rFVa [3]): no detectable binding | binding of OG488-BR to thrombin-cleaved FV-810^R709Q (FV-810^R709Q): did not; also recorded: neither FV-810 nor FV-810^R709Q had detectable binding | Kd (FV-810^R1545Q; after incubation with thrombin, read-out: Kd, OG488-BR binding to thrombin-cleaved FV-810^R1545Q): 30 nM | Kd (FV-810^R1545Q; pretreated with buffer, assuming n=1, read-out: Kd, OG488-BR binding to FV-810^R1545Q): 2 nM | Kd, OG488-BR binding to thrombin-treated FV-810^QQ (FV-810^QQ): still bound

Molecule: H-C(X2)SRAWGESTPLANKPGKQSGHPKFPRVRHKSLQVRQDGGKSRLKKSQFLIKTRKKKKEK-OH [QSY7-BR]
sedimentation coefficient (s^020,w) (FV-810 [5]; 5 μM QSY7-BR alone, absence of FV-810): 0.98 S (Svedberg) | sedimentation coefficient (FV-810 [5]; 5 μM QSY7-BR in the presence of 7 μM FV-810): 9.8 S (Svedberg)

Molecule: poly-L-lysine [reference compound]
inhibition of clotting activity of FV-810 (FV-DT) (FV-810 [1]): neither low molecular weight poly-L-lysine (average Mr=1000-5000) (FIG. 8A) nor the cationic platelet factor 4 affected FV-810 activity

Molecule: platelet factor 4: cationic platelet factor 4 [reference compound]
inhibition of clotting activity of FV-810 (FV-DT) (FV-810 [1]): neither low molecular weight poly-L-lysine (average Mr=1000-5000) (FIG. 8A) nor the cationic platelet factor 4 affected FV-810 activity

B1: BR+AR peptide: FV residues 968-1007 and 1492-1538, juxtaposed BR and AR sequences from FV-B104 (peptide)
peptide: SGHPKFPRVRHKSLQVRQDGGKSRLKKSQFLIKTRKKKKETDYIEIIPKEEVQSSEDDYAEIDYVPYDDPYKTDVRTNINSSRDPDN
inhibition of clotting activity of rFVa/FVa (rFVa [8]): not inhibited

Second part, led by results:

inhibition of clotting activity of FV-810 (FV-DT) (FV-810 [1]): no longer inhibited
Molecule: acetylated BR peptide: BR peptide acetylated at all Lys residues and the N terminus (Ac-SRAWGESTPLANK(Ac)PGK(Ac)QSGHPK(Ac)FPRVRHK(Ac)SLQVRQDGGK(Ac)SRLK(Ac)K(Ac)SQFLIK(Ac)TRK(Ac)K(Ac)K(Ac)K(Ac)EK(Ac))

Kd (FV-810 [4]; 30 nM OG488-BR, 20 nM FV-810, 50 μM PCPS, 25° C., assuming stoichiometry of 1 mol of FV-810/mol of BR peptide): 28.3 ± 0.6 nM | weaker binding to FV-810 than the human BR (FV-810 [4]; displacement binding experiments): ~10 fold | inhibition of prothrombin activation with FV-810 (FV-DT) (FXa/FV-DT): inhibited | inhibition of clotting activity of FV-810 (FV-DT) (FV-810 [1]): inhibited
Molecule: bovine BR: Bos taurus FV basic region Ser938-Lys996 (SRTWGENIPFKNSHGKQSGHPTFLVTRRKPLQDRQDRRNSRLKEGLPLIRTRRKKKEEK)

direct binding to FVDT (FVDT [7]): directly bound
Molecule: TFPI peptide: C-terminal tail peptide of tissue factor pathway inhibitor (amino acids 240-265, SEQ ID NO: 4) (KKGFIQRISKGGLIKTKRKRKKQRVK; peptide from human tissue factor pathway inhibitor)
inhibition of FVDT (FVDT [6]): inhibited FVBT in a manner similar to FVBR
